Measurements from patent US20230404887A1, “COMPOSITIONS TO LIMIT OR ELIMINATE THE PERCEPTION OF SWEAT MALODOR” (Firmenich SA, priority 2020, published 2023).

Experiments:
[1] = Expert perfumer evaluation of malodor reduction, dynamic olfactometer, against 3H3MHA; design: species or system human; key to EXPERT RATING: −2: significant increase in malodor; −1: slight increase in malodor; 0: no effect; 1: slight malodor reduction; 2: good malodor reduction; 3: complete malodor reduction; conditions: for EFFECTIVE CONCENTRATION: MO 3H3MHA held fixed at mid-intensity (0.5), headspace concentration providing an effective level; for EXPERT RATING: MO 3H3MHA held fixed at mid-intensity (0.5 on scale 0-1), rating of degree of malodor reduction at the effective concentration
Procedure: The effectiveness of perfuming materials in compositions to reduce the perception of, for example, axillary sweat malodors, was evaluated by an expert perfumer by 1) selecting target axillary malodor components, 2) delivering target malodor components and candidate malodor reducing materials to the nose of an expert perfumer at carefully controlled concentrations, 3) having the expert perfumer identify the concentration at which malodor reduction was obtained, and 4) rating the degree of reduction achieved at the concentration identified in step 3. […] Two surprising results were be observed. The first is that not all tested materials yielded complete malodor reduction, often differing depending on which component they were tested against. […] Intensity and concentration were material-dependent and spanned a wide range of values on both axes. […] Thus, neither the required concentrations, nor performance ratings could be predicted a priori by one skilled in the art, yet are necessary and sufficient for designing malodor reducing compositions for use in perfuming products.
(§1) In this method, a dynamic multi-channel olfactometer was used to precisely deliver known gas phase concentrations of the test materials, using forced evaporation, into a stream of air emanating from a smelling port. The appropriate concentration of the malodor component was established prior to its being mixed with the candidate malodor reducing substance. The concentration was set at a concentration sufficient to produce an intensity of 0.5 (mid-intensity) on a scale of 0-1. The expert perfumer then dynamically adjusted the concentration of the candidate malodor reducing substance to determine the effective concentration, while maintaining a fixed concentration of the malodor component. Once the appropriate concentration had been determined, the expert perfumer evaluated the perception of the mixtures repeatedly over a period of several minutes, taking breaks in between sniffs to avoid adaptation to the components being tested, before providing a rating.
(§2) Tests were performed in a forced-evaporation, dynamic olfactometer, with malodor component concentrations held fixed at a mid-intensity. Ratings of effectiveness were based in the following scale: −2 (significant increase in malodor), −1 (slight increase in malodor), 0 (no effect), 1 (slight malodor reduction), 2 (good malodor reduction), 3 (complete malodor reduction). The malodor (MO) component abbreviations are 3H3MHA (3-methyl-3-hydroxyhexanoic acid), 3M2HA (3-methyl-2-hexenoic acid), 3M3SH (3-methyl-3-sulphanylhexanol).

[2] = Expert perfumer evaluation of malodor reduction, dynamic olfactometer, against 3M2HA; design: species or system human; conditions: for EFFECTIVE CONCENTRATION: MO 3M2HA held fixed at mid-intensity (0.5), headspace concentration providing an effective level; for EXPERT RATING: MO 3M2HA held fixed at mid-intensity (0.5 on scale 0-1), rating of degree of malodor reduction at the effective concentration
Procedure: (§3) The effectiveness of perfuming materials in compositions to reduce the perception of, for example, axillary sweat malodors, was evaluated by an expert perfumer by 1) selecting target axillary malodor components, 2) delivering target malodor components and candidate malodor reducing materials to the nose of an expert perfumer at carefully controlled concentrations, 3) having the expert perfumer identify the concentration at which malodor reduction was obtained, and 4) rating the degree of reduction achieved at the concentration identified in step 3.
as §1, §2

[3] = Expert perfumer evaluation of malodor reduction, dynamic olfactometer, against 3M3SH; design: species or system human; conditions: for EFFECTIVE CONCENTRATION: MO 3M3SH held fixed at mid-intensity (0.5), headspace concentration providing an effective level; for EXPERT RATING: MO 3M3SH held fixed at mid-intensity (0.5 on scale 0-1), rating of degree of malodor reduction at the effective concentration
Procedure: as §3, §1, §2

[4] = Naive panelist evaluation of malodor reduction at mid-intensity dosages, passive evaporation in jars, against 4MOA; design: species or system human; conditions: MO 4MOA dosage 7.5%, test compound dosage 1.5% in DiPG on cellulose pads; jar equilibrated 4 hours at room temperature; N 26 panelists
Procedure: The performance of fragrancing products was evaluated by non-expert consumers under passive evaporation conditions. This was achieved by: 1) selecting target axillary malodor components, 2) delivering target malodor components and candidate malodor reducing materials (separately) to the noses of naïve panelists at a range of dosages established under passive evaporation conditions 3) having the panelists evaluate the overall intensity of each presented sample, 4) determining the average mid-intensity concentration for both the malodors and malodor reducing candidates of interest, 5) delivering samples containing a malodor component and a malodor reducing candidate of interest mixed together at the dosages determined in step 4, along with separate control samples containing either alone or neither, to the noses of panelists, 6) having panelists evaluate the malodor intensity for each presented sample, and 7) determining the degree of malodor reduction produced by the candidate malodor reducing material by comparing the malodor intensity ratings of the mixture to those of the control samples. […]

| Molecule | EFFECTIVE CONCENTRATION [1] [micrograms/L AIR] | EXPERT RATING [1] | EFFECTIVE CONCENTRATION [2] [micrograms/L AIR] | EXPERT RATING [2] | EFFECTIVE CONCENTRATION [3] [micrograms/L AIR] | EXPERT RATING [3] | Reduction (%) [4] [%] |
| --- | --- | --- | --- | --- | --- | --- | --- |
| CCOC(=O)[C@@H]1[C@@H](C(C)C)[C@@H]2C=C[C@H]1C2 (racemic) [ETHYL 1RS,2SR,3SR,4SR-3-ISOPROPYLBICYCLO[2.2.1]HEPT-5-ENE-2-CARBOXYLATE] | 1.03E+00 | 3 | 2.58E+00 | 2 | 2.07E+01 | 3 |  |
| CC/C=C\CC/C=C/C=O [(2E,6Z)-2,6-NONADIENAL] | 1.13E−03 | 3 | 2.83E−03 | 3 | 5.67E−04 | 3 |  |
| C/C=C/C(=O)C1C(C)=CCCC1(C)C (racemic) | 1.08E−02 | 3 | 1.30E−02 | 2 |  |  |  |
| CCCCC[C@H]1C(=O)CC[C@@H]1CC(=O)OC (racemic) [METHYL 2-((1RS,2RS)-3-OXO-2-PENTYLCYCLOPENTYL)ACETATE] | 5.73E−01 | 3 | 7.17E−01 | 2 | 7.17E−01 | 2 |  |
| Cc1ccc2c(c1)CC(C)(CO)C2 (racemic) | 3.13E−02 | 3 | 4.70E−02 | 3 | 7.83E−02 | 3 |  |
| CC(C)=CCCC(C)CC=O (racemic) | 1.30E−01 | 3 | 1.30E−01 | 2 |  |  |  |
| CC(=O)c1ccc2ccccc2c1 | 1.37E−02 | 3 | 1.37E−02 | 3 | 3.42E−02 | 2 |  |
| 1-(3,3/5,5-dimethyl-1-cyclohexen-1-yl)-4-penten-1-one | 1.22E+00 | 3 | 2.53E−03 | 3 | 1.22E+00 | 3 |  |
| C/C=C/c1ccc(OCC)c(O)c1 [(E)-2-ETHOXY-5-(1-PROPENYL)PHENOL] | 4.50E−03 | 3 | 1.80E−02 | 3 | 4.50E−02 | 3 |  |
| (+−)-(3E)-4-(2,6,6-trimethyl-1/2-cyclohexen-1-yl)-3-buten-2-one | 2.00E−01 | 3 | 4.00E−01 | 3 | 8.00E−01 | 2 |  |
| CCOC(=O)C12CCCC1C1CCC2C1 (stereo not shown) [ethyl tricyclo[5.2.1.0.(2,6)]decane-2-carboxylate] |  |  | 1.07E−01 | 3 |  |  | 43 |
| CCCCCCCCCCC=O [UNDECANAL] |  |  | 5.42E−02 | 3 | 2.17E−01 | 3 |  |
| C=C1CCCC(C)(C)C1C(=O)OC (racemic) [(+−)-METHYL 2,2-DIMETHYL-6-METHYLIDENECYCLOHEXANECARBOXYLATE] | 8.00E−01 | 3 | 4.00E−01 | 3 | 4.00E−01 | 2 |  |
| C[C@@H]1C/C=C\CCCCCCCCCC(=O)C1 [(+)-(3R,5Z)-3-METHYL-5-CYCLOPENTADECEN-1-ONE] | 5.50E−01 | 2 | 1.65E−01 | 2 | 2.75E−01 | 2 |  |
| CC(=O)OC(C)(C)C1CC=C(C)CC1 (racemic) [(+−)-2-(4-METHYL-3-CYCLOHEXEN-1-YL)-2-PROPANYL ACETATE] |  |  | 1.08E+00 | 3 | 1.08E+00 | 3 |  |
| c1ccc(CCCc2ccccn2)cc1 [2-(3-PHENYLPROPYL)PYRIDINE] | 1.43E−04 | 3 | 1.43E−04 | 3 |  |  |  |
| O=c1ccc2ccccc2o1 [2-CHROMENONE] |  |  | 9.83E−03 | 3 | 7.87E−02 | 3 |  |
| CCOC(=O)/C=C/c1ccccc1 [ETHYL (E)-3-PHENYL-2-PROPENOATE] |  |  | 7.33E−02 | 2 | 3.67E−02 | 2 |  |
| CC1(C)CCC[C@]2(C)[C@H]3CCO[C@]3(C)CC[C@@H]12 (racemic) [(3aRS,5aSR,9aSR,9bRS)-3a,6,6,9a-TETRAMETHYLDODECAHYDRONAPHTHO[2,1-b]FURAN] |  |  | 4.33E−03 | 3 | 2.17E−03 | 3 |  |
| 3-(2/4-ETHYLPHENYL)-2,2-DIMETHYLPROPANAL |  |  | 3.67E−01 | 3 | 7.33E−01 | 2 |  |
| C=CCCCCCCCCC=O [10-UNDECENAL] |  |  | 9.50E−03 | 3 | 9.50E−02 | 2 |  |
